Km data for two compounds are collected here from paper PMC4804155 (Chembiochem : a European journal of chemical biology, 2015).

For assay [1], the target named is T1, MOF (male absent on the first, MYST1, HAT8) (Homo sapiens, UniProt Q9H7Z6, I317A).
T1 sequence (Q9H7Z6 174-447 I317A limits assumed): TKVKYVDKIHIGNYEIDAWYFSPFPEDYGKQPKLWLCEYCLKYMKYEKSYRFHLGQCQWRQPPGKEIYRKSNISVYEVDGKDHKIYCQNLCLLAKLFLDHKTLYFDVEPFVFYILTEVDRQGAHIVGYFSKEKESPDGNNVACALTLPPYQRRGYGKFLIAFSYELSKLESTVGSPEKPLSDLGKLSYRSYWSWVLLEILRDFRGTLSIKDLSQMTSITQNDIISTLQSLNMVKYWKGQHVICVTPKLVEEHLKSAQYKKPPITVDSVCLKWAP
As to the kind of experiment: CPM fluorogenic enzyme kinetics, Km. It counts as biochemical.

The target in assay [2] is MOF (male absent on the first, MYST1, HAT8) (Homo sapiens, UniProt Q9H7Z6).
Sequence of MOF (male absent on the first, MYST1, HAT8) (Homo sapiens, UniProt Q9H7Z6) (Q9H7Z6 2-458): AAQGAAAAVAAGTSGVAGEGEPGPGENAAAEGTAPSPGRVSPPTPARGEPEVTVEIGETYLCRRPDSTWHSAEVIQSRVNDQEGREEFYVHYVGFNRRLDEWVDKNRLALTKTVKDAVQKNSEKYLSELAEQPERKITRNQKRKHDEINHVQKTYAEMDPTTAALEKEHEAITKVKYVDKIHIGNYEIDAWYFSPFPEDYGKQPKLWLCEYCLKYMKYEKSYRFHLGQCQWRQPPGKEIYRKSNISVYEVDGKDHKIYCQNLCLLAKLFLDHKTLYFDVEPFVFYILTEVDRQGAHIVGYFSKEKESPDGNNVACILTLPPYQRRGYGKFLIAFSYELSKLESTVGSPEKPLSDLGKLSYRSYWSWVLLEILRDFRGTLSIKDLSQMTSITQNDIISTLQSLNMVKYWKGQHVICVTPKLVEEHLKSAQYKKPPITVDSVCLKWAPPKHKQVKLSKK
In assay [3] the target is T1, MOF (male absent on the first, MYST1, HAT8).

Like-named read-outs stand apart in the source and are kept apart here.

Usually Km stands for the concentration of substrate that gives half-maximal velocity.

With `CC(C)(COP(=O)(O)OP(=O)(O)OC[C@H]1O[C@@H](n2cnc3c(N)ncnc32)[C@H](O)[C@@H]1OP(=O)(O)O)[C@@H](O)C(=O)NCCC(=O)NCCSC(=O)CCN=[N+]=[N-]` [3-azidopropanoyl CoA], the Km in assay [1] was determined as 2.7 ± 0.2 µM.

For the compound `CC(=O)SCCNC(=O)CCNC(=O)[C@H](O)C(C)(C)COP(=O)(O)OP(=O)(O)OC[C@H]1O[C@@H](n2cnc3c(N)ncnc32)[C@H](O)[C@@H]1OP(=O)(O)O` [acetyl-CoA], the results for the Km in assay [2] and in assay [3] were 1.3 ± 0.1 µM and 3.5 ± 0.2 µM, respectively.
